Assay results taken from paper PMC5671894 (Journal of biological inorganic chemistry : JBIC : a …, 2017).
Like-named read-outs stand apart in the source and are kept apart here.

Legend:
PTP1B [1] = conditions: substrate pNPP; cited from earlier work
PTP1B [2] = conditions: ref Makinen, M. W. and Zhou, K. I., unpublished observations; cited from earlier work
[3] = biological target: T1, soluble portion of human PTP1B (residues 1-321) (Homo sapiens, UniProt P18031); experiment: Steady-state inhibition of PTP1B-catalyzed hydrolysis of pNPP; assay type: biochemical; conditions: substrate pNPP; for Ki: 0.1 M NaCl, pH 5, 22° C, N2-purged
T1 sequence (P18031 1-321): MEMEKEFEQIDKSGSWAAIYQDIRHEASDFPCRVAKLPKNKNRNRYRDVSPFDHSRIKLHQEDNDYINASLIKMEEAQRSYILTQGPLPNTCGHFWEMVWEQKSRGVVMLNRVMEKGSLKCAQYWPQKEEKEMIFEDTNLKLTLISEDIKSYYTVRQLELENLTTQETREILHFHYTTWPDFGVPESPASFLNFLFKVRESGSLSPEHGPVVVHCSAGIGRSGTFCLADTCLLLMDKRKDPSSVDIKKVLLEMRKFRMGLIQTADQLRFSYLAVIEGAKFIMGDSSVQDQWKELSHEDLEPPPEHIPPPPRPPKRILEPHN

[4] = biological target: T1, soluble portion of human PTP1B (residues 1-321); assay type: biochemical
[5] = tested on: fused protein construct of glutathione-S-transferase and the full length PTP1B polypeptide chain (435 residues); conditions: substrate pNPP; cited from earlier work
PTP1B [6] = conditions: substrate DADEpYLIPQQG; malachite green, 30 min, not steady-state; cited from earlier work
[7] = biological target: T1, soluble portion of human PTP1B (residues 1-321); assay type: biochemical; conditions: substrate hydrolysis, no inhibitor; this study
[8] = tested on: Rat PTP1 (residues 1–323); conditions: 0.1 M ionic strength, pH 5.5; cited from earlier work

In the case of `CCc1oc2cc(S(=O)(=O)Nc3ccc(S(N)(=O)=O)cc3)ccc2c1C(=O)c1cc(Br)c(O)c(Br)c1` [Compound 2, 3-(3,5-dibromo-4-hydroxy-benzoyl)-2-ethyl-benzofuran-6-sulfonic acid (4-sulfamoyl-phenyl)amide], the mode of inhibition (PTP1B [1]) is listed as “noncompetitive inhibition”.
In the case of `CC(=O)/C=C(/C)O` [Mg(acac)2], the Ki (PTP1B [2]) is given as over 600 µM.
In the case of `CCc1occc(=O)c1[O-].CCc1occc(=O)c1[O-].[O]=[V+2]` [VO(Et-malto)2, bis(2-ethyl-maltolato)oxidovanadium(IV)], the mode of inhibition [3] is reported as “noncompetitive inhibition”, the Ki [3] is reported as 14.8 ± 1.4 µM and the mode of inhibition ([4]; substrate EGFR^988-998 (DADEpYLIPQQG)) is reported as “noncompetitive”. It also gave a Ki ([4]; substrate EGFR^988–998, 0.1 M NaCl, pH 6, 20° C, N2-purged) of 0.14 ± 0.01 µM.
For `Cc1occc(=O)c1[O-].Cc1occc(=O)c1[O-].[O]=[V+2]` [VO(Me-malto)2, bis(2-methyl-maltolato)oxidovanadium(IV)], the mode of inhibition [5] is given as “mixed inhibition”.
For `CC(=O)/C=C(/C)[O-].CC(=O)/C=C(/C)[O-].[O]=[V+2]` [VO(acac)2, bis(acetylacetonato)oxidovanadium(IV)], the mode of inhibition (PTP1B [6]) is given as “uncompetitive behavior”.
With `Cc1[nH]ccc(=O)c1[O-].Cc1[nH]ccc(=O)c1[O-].[O]=[V+2]` [VO(mpp)2, bis(3-hydroxy-2-methyl-4(1H)pyridinonato)oxidovanadium(IV)] the mode of inhibition [3] was “competitive inhibition” and the Ki [3] was 38.2 ± 0.5 µM.
For `O=[N+]([O-])c1ccc(OP(=O)(O)O)cc1` [pNPP, para-nitrophenylphosphate], the Km [7] is listed as 460 ± 120 µM, the kcat [7] is listed as 62.9 ± 12.0 s⁻¹ and the Km [8] is listed as 339 ± 16 µM. For the same compound, the kcat [8] was 69.2 ± 1.1 s⁻¹.
